Source: US9629822B2, “Flavonoid based antiviral targets” (UNIVERSITY OF CENTRAL FLORIDA RESEARCH FOUNDATION, INC., priority 2012, dated 2017)

tested on: not listed separately; assay: TZMbI assay for cell safety (cell viability and growth, CytoTox Glo); conditions: human, TZMbI cells, 10 μM, Experiment 1A; read-out: % decrease in viability compared to 0.1% DMSO vehicle based on viable cell luminescence
Description: Assays were performed below in accordance with the procedures set forth in The Journal of Immunology, 2006, 176, pp. 6900-905; AIDS Research and Human Retroviruses, 2004, 20:11, pp. 1157-1665.^32,33 TZMbI assays for cell safety were performed to identify potential anti-viral compounds. TZMbI assays for cell safety were performed to identify potential anti-viral compounds per the methods.

Row | Compound | cytotoxicity at 10 μM
1 | COc1ccc(I)cc1/C=C/C(=O)c1ccccc1O [Compound 8g, (E)-1-(2-hydroxyphenyl)-3-(5-iodo-2-methoxyphenyl)prop-2-en-1-one] | 99.7%
2 | CCOc1ccc(Cl)cc1/C=C/C(=O)c1ccccc1O [Compound 8i, (E)-3-(5-chloro-2-ethoxyphenyl)-1-(2-hydroxyphenyl)prop-2-en-1-one] | 87.1%
3 | COc1ccc(C)cc1/C=C/C(=O)c1ccccc1O [Compound 8j, (E)-1-(2-hydroxyphenyl)-3-(2-methoxy-5-methylphenyl)prop-2-en-1-one] | 47%
4 | COc1cc(OC)c(-c2oc3ccccc3c(=O)c2O)cc1Br [Compound 9e, 2-(5-Bromo-2,4-dimethoxyphenyl)-3-hydroxy-4H-chromen-4-one] | -11.9%

tested on: mock transfected 293T HEK cells; assay: PathDetect Elk1 luminescence in mock transfected (empty pcDNA3 vector) 293T HEK cells, off-target effect; assay type: cell-based, human; conditions: 10 μM vs 1% DMSO control, Equation 1
In short: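 HEK 293T cells were transiently transfected with PathDetect Elk1/luciferase and empty pcDNA3, then exposed to 10 μM compound in medium with 1% FBS and 1% DMSO for 20-24 h at 37 °C. BrightGlo luminescence was compared with the 1% DMSO control: % effect = 100%×(mock/DMSO) − 100%.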

Row | Compound | Effect(%) on mock cells with each drug at 10 μM
5 | COc1ccc(I)cc1/C=C/C(=O)c1ccccc1O [Compound 8g, (E)-1-(2-hydroxyphenyl)-3-(5-iodo-2-methoxyphenyl)prop-2-en-1-one] | 100%
6 | CCOc1ccc(Cl)cc1/C=C/C(=O)c1ccccc1O [Compound 8i, (E)-3-(5-chloro-2-ethoxyphenyl)-1-(2-hydroxyphenyl)prop-2-en-1-one] | 33%

same assay, conditions: Homo sapiens, 10 μM vs 1% DMSO control, Equation 1; read-out: Effect(%) on mock cells with each drug at 10 μM

Row | Compound | activation at 10 µM
7 | COc1ccc(I)cc1/C=C/C(=O)c1ccccc1O [Compound 8g, (E)-1-(2-hydroxyphenyl)-3-(5-iodo-2-methoxyphenyl)prop-2-en-1-one] | 100%
8 | CCOc1ccc(Cl)cc1/C=C/C(=O)c1ccccc1O [Compound 8i, (E)-3-(5-chloro-2-ethoxyphenyl)-1-(2-hydroxyphenyl)prop-2-en-1-one] | 33%
9 | COc1ccc(C)cc1/C=C/C(=O)c1ccccc1O [Compound 8j, (E)-1-(2-hydroxyphenyl)-3-(2-methoxy-5-methylphenyl)prop-2-en-1-one] | -4%
10 | COc1cc(OC)c(-c2oc3ccccc3c(=O)c2O)cc1Br [Compound 9e, 2-(5-Bromo-2,4-dimethoxyphenyl)-3-hydroxy-4H-chromen-4-one] | -17%

target: T1, US28 receptor (Human cytomegalovirus, UniProt P69332); assay: PathDetect trans Elk1 luciferase reporter gene assay in US28-transfected 293T HEK cells; assay type: cell-based, Human Cytomegalovirus (HCMV); conditions: 293T HEK cells transiently expressing US28, Elk1 reporter; NE = no effect when tested at 10 μM of compound
T1 construct: expressed in transfected cells; host or cells: HEK 293T cells, transiently transfected
T1 sequence (P69332 whole entry): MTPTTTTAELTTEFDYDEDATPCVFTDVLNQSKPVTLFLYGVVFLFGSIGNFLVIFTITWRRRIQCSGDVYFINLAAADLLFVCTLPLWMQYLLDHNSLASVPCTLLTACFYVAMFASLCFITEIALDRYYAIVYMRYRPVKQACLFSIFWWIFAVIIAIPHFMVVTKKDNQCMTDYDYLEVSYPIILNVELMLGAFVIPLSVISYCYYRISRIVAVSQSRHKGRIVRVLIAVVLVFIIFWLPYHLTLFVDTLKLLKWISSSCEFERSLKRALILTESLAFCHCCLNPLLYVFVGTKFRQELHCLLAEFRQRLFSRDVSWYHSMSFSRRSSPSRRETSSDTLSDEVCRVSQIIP
In short: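 HEK293T cells transiently transfected with Elk1, Luc and US28 vector (empty pcDNA3 for mock) were dosed with compounds in DMEM/1% FBS with 1% DMSO for 20-24 h at 37° C. Bright-Glo luminescence decrease was read; EC50 is halfway between maximal response and no-compound control, by non-linear regression.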

Row | Compound | EC50
11 | COc1cc(OC)c(-c2oc3ccccc3c(=O)c2O)cc1Br [Compound 9e, 2-(5-Bromo-2,4-dimethoxyphenyl)-3-hydroxy-4H-chromen-4-one] | > 10 µM

same assay, conditions: EC50 (μM), 293T HEK cells transiently expressing US28, Elk1 reporter; NE = no effect when tested at 10 μM of compound

Row | Compound | EC50
12 | COc1ccc(I)cc1/C=C/C(=O)c1ccccc1O [Compound 8g, (E)-1-(2-hydroxyphenyl)-3-(5-iodo-2-methoxyphenyl)prop-2-en-1-one] | 5.5 µM
13 | CCOc1ccc(Cl)cc1/C=C/C(=O)c1ccccc1O [Compound 8i, (E)-3-(5-chloro-2-ethoxyphenyl)-1-(2-hydroxyphenyl)prop-2-en-1-one] | 6.4 µM

same assay, conditions: Elk1 reporter, US28-transfected HEK cells

Row | Compound | type of activity on the US28 receptor (agonist / inverse agonist / none), in words
14 | COc1ccc(C)cc1/C=C/C(=O)c1ccccc1O [Compound 8j, (E)-1-(2-hydroxyphenyl)-3-(2-methoxy-5-methylphenyl)prop-2-en-1-one] | agonist activity

same assay, conditions: maximum intrinsic activity from dose-response curve; negative = inverse agonism

Row | Compound | Efficacy(%)
15 | COc1ccc(I)cc1/C=C/C(=O)c1ccccc1O [Compound 8g, (E)-1-(2-hydroxyphenyl)-3-(5-iodo-2-methoxyphenyl)prop-2-en-1-one] | ~94%
16 | CCOc1ccc(Cl)cc1/C=C/C(=O)c1ccccc1O [Compound 8i, (E)-3-(5-chloro-2-ethoxyphenyl)-1-(2-hydroxyphenyl)prop-2-en-1-one] | ~76%

same assay, conditions: read-out: Efficacy(%), 10 μM single concentration

Row | Compound | Emax at 10 µM
17 | COc1ccc(C)cc1/C=C/C(=O)c1ccccc1O [Compound 8j, (E)-1-(2-hydroxyphenyl)-3-(2-methoxy-5-methylphenyl)prop-2-en-1-one] | 52%

same assay, conditions: read-out: Efficacy(%), maximum intrinsic activity from dose-response curve; negative = inverse agonism

Row | Compound | Emax
18 | COc1ccc(I)cc1/C=C/C(=O)c1ccccc1O [Compound 8g, (E)-1-(2-hydroxyphenyl)-3-(5-iodo-2-methoxyphenyl)prop-2-en-1-one] | ~94%
19 | CCOc1ccc(Cl)cc1/C=C/C(=O)c1ccccc1O [Compound 8i, (E)-3-(5-chloro-2-ethoxyphenyl)-1-(2-hydroxyphenyl)prop-2-en-1-one] | ~76%

tested on: HIV-1 BaL; assay: Anti-HIV assay (luciferase, HIV-1 BaL infection); assay type: cell-based; conditions: 10 μM, Experiment 1B, 2 ng/mL p24 HIV-1 BaL
In short: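 Cells infected with HIV-1 BaL at 2 ng/mL p24 (MOI approx 0.02) in compound presence. Infection read out by luciferase.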

Row | Compound | RLU (relative luciferase units)
20 | COc1ccc(I)cc1/C=C/C(=O)c1ccccc1O [Compound 8g, (E)-1-(2-hydroxyphenyl)-3-(5-iodo-2-methoxyphenyl)prop-2-en-1-one] | 3.3 RLU
21 | CCOc1ccc(Cl)cc1/C=C/C(=O)c1ccccc1O [Compound 8i, (E)-3-(5-chloro-2-ethoxyphenyl)-1-(2-hydroxyphenyl)prop-2-en-1-one] | 130.4 RLU
22 | COc1ccc(C)cc1/C=C/C(=O)c1ccccc1O [Compound 8j, (E)-1-(2-hydroxyphenyl)-3-(2-methoxy-5-methylphenyl)prop-2-en-1-one] | 345.7 RLU
23 | COc1cc(OC)c(-c2oc3ccccc3c(=O)c2O)cc1Br [Compound 9e, 2-(5-Bromo-2,4-dimethoxyphenyl)-3-hydroxy-4H-chromen-4-one] | 693.9 RLU

same assay, conditions: Human immunodeficiency virus 1, BAL, 10 μM, Experiment 1B, 2 ng/mL p24 HIV-1 BaL

Row | Compound | inhibition at 10 µM
24 | COc1ccc(I)cc1/C=C/C(=O)c1ccccc1O [Compound 8g, (E)-1-(2-hydroxyphenyl)-3-(5-iodo-2-methoxyphenyl)prop-2-en-1-one] | 99.6%
25 | CCOc1ccc(Cl)cc1/C=C/C(=O)c1ccccc1O [Compound 8i, (E)-3-(5-chloro-2-ethoxyphenyl)-1-(2-hydroxyphenyl)prop-2-en-1-one] | 86.2%
26 | COc1ccc(C)cc1/C=C/C(=O)c1ccccc1O [Compound 8j, (E)-1-(2-hydroxyphenyl)-3-(2-methoxy-5-methylphenyl)prop-2-en-1-one] | 63.1%
27 | COc1cc(OC)c(-c2oc3ccccc3c(=O)c2O)cc1Br [Compound 9e, 2-(5-Bromo-2,4-dimethoxyphenyl)-3-hydroxy-4H-chromen-4-one] | 25.9%

tested on: CHO cells; assay: CHO cell toxicity, MTS assay, 48 h; assay type: cell-based, Chinese hamster; conditions: Cricetulus griseus, CHO, 37° C., MTS reagent, read-out: CHO 48 h IC50 value
In short: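 CHO cells plated at 10,000 cells/mL, incubated overnight, then exposed to drug (final DMSO <1%) for 48 h at 37 °C, 5% CO2, in triplicate. MTS added for a further 4 h; absorbance read at 490 nm. IC50 taken from relative A490 versus drug concentration.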

Row | Compound | IC50
28 | COc1ccc(I)cc1/C=C/C(=O)c1ccccc1O [Compound 8g, (E)-1-(2-hydroxyphenyl)-3-(5-iodo-2-methoxyphenyl)prop-2-en-1-one] | 6.7 ± 0.7 µM
29 | CCOc1ccc(Cl)cc1/C=C/C(=O)c1ccccc1O [Compound 8i, (E)-3-(5-chloro-2-ethoxyphenyl)-1-(2-hydroxyphenyl)prop-2-en-1-one] | 6.8 ± 0.9 µM
30 | COc1ccc(C)cc1/C=C/C(=O)c1ccccc1O [Compound 8j, (E)-1-(2-hydroxyphenyl)-3-(2-methoxy-5-methylphenyl)prop-2-en-1-one] | 14.2 ± 2.7 µM
31 | COc1cc(OC)c(-c2oc3ccccc3c(=O)c2O)cc1Br [Compound 9e, 2-(5-Bromo-2,4-dimethoxyphenyl)-3-hydroxy-4H-chromen-4-one] | 18.3 ± 2.5 µM

tested on: not given; assay: not given; conditions: not given

Row | Compound | melting point
32 | COc1ccc(I)cc1/C=C/C(=O)c1ccccc1O [Compound 8g, (E)-1-(2-hydroxyphenyl)-3-(5-iodo-2-methoxyphenyl)prop-2-en-1-one] | 107 to 109 °C
33 | CCOc1ccc(Cl)cc1/C=C/C(=O)c1ccccc1O [Compound 8i, (E)-3-(5-chloro-2-ethoxyphenyl)-1-(2-hydroxyphenyl)prop-2-en-1-one] | 61 to 65 °C
34 | COc1ccc(C)cc1/C=C/C(=O)c1ccccc1O [Compound 8j, (E)-1-(2-hydroxyphenyl)-3-(2-methoxy-5-methylphenyl)prop-2-en-1-one] | 69 to 72 °C
35 | COc1cc(OC)c(-c2oc3ccccc3c(=O)c2O)cc1Br [Compound 9e, 2-(5-Bromo-2,4-dimethoxyphenyl)-3-hydroxy-4H-chromen-4-one] | 196 to 201 °C
